{
  "source": "patent US7049133B2",
  "about": "“Regulation of gene expression through manipulation of mRNA splicing and its uses” (Yissum Research Development Company of the Hebrew …, priority 1998, dated 2006)",
  "key": {"[1]": {"tested_on": "splicing of TNF-α precursor transcripts", "experiment": "RNase protection analysis of TNF-α precursor transcripts and spliced mRNA in transfected BHK-21 cells", "type": "cell-based, hamster", "description": "(§1) BHK-21 cells were grown in DMEM medium supplemented with 2 mM glutamine, 40 mM NaHCO3, 10 mM Hepes, pH 7.3, […] of penicillin and streptomycin, […] nystatin and 10% fetal calf serum. 2-AP (Sigma) was added at 10 mM unless otherwise indicated. To prepare a stock solution of 0.15 M, 2-AP was dissolved in phosphate-buffered saline by heating at 70° C. for 10 min.\n(§2) In the experiments of FIGS. 2 and 3, monolayers of BHK-21 cells were seeded at a density of 1−2×10^6 cells/8-cm Petri dish and grown overnight; 4 h before cotransfection, culture medium was replaced. A mixture of […] of test DNA construct and 4 mg salmon sperm DNA carrier, and, when included, 2 mg pSV2CAT DNA [47], was permeated into cells by the calcium phosphate-DNA coprecipitation technique. After 12–18 h, culture medium was replaced with fresh medium prewarmed to 37° C. In the experiments of FIGS. 6 and 7, LipofectAmine (Life Technologies) was employed following instructions of the supplier, using 1 mg of each DNA for transfection.\n(§3) For RNase protection analysis, DNA was subcloned in pBS (Stratagene) under the T3 or T7 promoter and transcribed using [a-^32P]UTP to generate labeled anti-sense RNA transcripts. A TNF-α RNA probe (map: FIG. 2A) was generated from a 821-bp EcoRI-Sau3AI fragment containing the 5′-flank, 151 -bp 5′-UTR, and first 6 codons. A second TNF-α RNA probe was generated from a 823-bp EcoRI-EcoRI 3′-UTR fragment from which a 5′-terminal fragment was removed by BstEII digestion, leaving 83 3′-terminal bp of the 3′-UTR and 250 bp beyond the 3′ cleavage site (map: FIG. 2A). A third TNF-α RNA probe (map: FIG. 2B) was generated from a 700-bp Sau3AI-Sau3AI fragment consisting of 10 bp of intron 2, exon 3, intron 3 and part of exon 4. A TNF-β probe was generated from a 637-bp Bsu36I-EcoRI DNA fragment, containing part of intron 3 and 571 bp of exon 4 (map: FIG. 3A). A second TNF-β RNA probe (map: FIG. 3B) was generated from a 324-bp EcoRI-Bsu36I DNA fragment, containing part of exon 1, exon 2, exon 3 and a portion of intron 3. A probe of 250-nt, generated from a HindIII-EcoRI fragment of the coding region of the CAT gene, was used to quantitate CAT mRNA. Intactness of RNA probes was assessed by polyacrylamide gel electrophoresis.\n(§4) Total RNA was isolated using guanidinium isothiocyanate/CsC1. RNase protection analysis with RNases A and T1 was performed using genomic TNF-α and TNF-β riboprobes and CAT or actin probes as described. Protected RNA fragments were separated by electrophoresis in 5% polyacrylamide/8 M urea gels. Size markers in FIG. 3 were generated by MspI digestion of pGEM-3 DNA and filling in with [a-^32P]dCTP [12]. Size marker in FIG. 7 is a 100-bp DNA ladder (Fermentas) that was dephosphorylated and 5′ end-labeled with [γ-^32P]ATP."}, "[2]": {"tested_on": "splicing of TNF-β precursor transcripts", "experiment": "RNase protection analysis of TNF-β precursor transcripts and spliced RNA in transfected BHK-21 cells", "type": "cell-based, hamster", "description": "as §1, §2, §3, §4"}, "CAT mRNA": {"tested_on": "CAT mRNA", "experiment": "RNase protection analysis of CAT mRNA in transfected BHK-21 cells", "type": "cell-based", "description": "as §1, §2\nas §3, with “A second TNF-β RNA probe (map: FIG. 3B) was generated from a 324-bp EcoRI-Bsu36I DNA fragment, containing part of exon 1, exon 2, exon 3 and a portion of intron 3.” left out, “electrophoresis. […]” for “electrophoresis.”"}, "PKR": {"target": "T1, PKR (Oryctolagus cuniculus, UniProt A0A0U2KCE0)", "T1 construct": "phosphorylation of the PKR (68 kDa) and eIF2α (38 kDa) bands in the ribosome fraction of rabbit reticulocyte lysate; from tissue; host or cells: ribosome fraction of rabbit reticulocyte lysate", "T1 sequence (A0A0U2KCE0 1-547)": "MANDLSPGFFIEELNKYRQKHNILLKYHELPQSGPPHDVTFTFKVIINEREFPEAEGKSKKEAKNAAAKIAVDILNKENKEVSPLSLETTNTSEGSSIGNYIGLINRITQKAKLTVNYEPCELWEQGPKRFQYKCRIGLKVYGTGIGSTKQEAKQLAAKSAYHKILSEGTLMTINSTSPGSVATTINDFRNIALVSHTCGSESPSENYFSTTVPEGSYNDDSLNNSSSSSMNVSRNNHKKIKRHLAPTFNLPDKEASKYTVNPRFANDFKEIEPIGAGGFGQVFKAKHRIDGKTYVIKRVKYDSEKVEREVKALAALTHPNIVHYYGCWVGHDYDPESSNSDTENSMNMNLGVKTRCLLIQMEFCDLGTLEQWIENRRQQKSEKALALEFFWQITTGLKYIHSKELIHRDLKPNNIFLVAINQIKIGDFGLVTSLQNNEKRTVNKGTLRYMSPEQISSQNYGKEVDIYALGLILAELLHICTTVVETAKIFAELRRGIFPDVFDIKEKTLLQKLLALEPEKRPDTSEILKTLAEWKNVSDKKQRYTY", "experiment": "Phosphorylation of PKR and eIF2α in ribosome fraction from rabbit reticulocyte lysate", "type": "biochemical", "text": "A 823-bp EcoRI-EcoRI TNF-α gene fragment comprised of 573 3′-terminal bp of the 3′-UTR, the polyadenylation site and downstream sequences from pTNF-α was inserted into pBS under the T7 promoter. To obtain 3′-UTR sense transcripts, the DNA was digested with PstI (EP), NcoI (EN), AflIII (EA), SspI (ES) or XmnI (EX) and then transcribed in vitro. A 616-bp NcoI-EcoRI TNF-α gene fragment comprised of 366 3′-terminal bp of the 3′-UTR, the polyadenylation site and downstream sequences from pTNF-α was inserted into pBS under the T7 promoter. To obtain 3′-UTR sense transcripts, the DNA was digested with AflIII (NA) or XmnI (NX) and then transcribed in vitro. A 572-bp EcoRI-PstI TNF-β gene fragment comprised of 389 3′-terminal bp of the 3′-UTR, the polyadenylation site and downstream sequences from pTNF-β was inserted into pBS under the T7 promoter. To obtain 3′-UTR sense transcript, the DNA was digested with PstI and then transcribed in vitro. EP RNA transcript was purified by agarose gel electrophoresis, followed by chromatography on CF-11 cellulose, washing with ethanol and eluting with water as described. Phosphorylation of PKR and eIF2α chain was assayed by incubating polyI:polyC or 3′-UTR transcript with the ribosome fraction from rabbit reticulocyte lysate in the presence of [γ-^32P]ATP for 20 min at 30° C. as described and subjecting the reaction mixture to electrophoresis in 10% polyacryamide gels containing sodium dodecyl sulfate."}, "BHK-21 cells": {"tested_on": "BHK-21 cells", "type": "cell-based, baby hamster", "description": "as §1, §2"}, "[3]": {"tested_on": "primary human lymphoid cells", "details": "cited from earlier work"}, "[4]": {"details": "pTNF-α(3′UTR-β), 2-AP from 16 h"}, "[5]": {"details": "pTNF-α, 2-AP 10 mM from 18 h after transfection"}, "[6]": {"details": "pTNF-β(3′UTR-α), 2-AP in presence of CHX"}, "[7]": {"details": "pTNF-β(3′UTR-α), intron 3/exon 4 probe, 2-AP from 16 h"}},
  "note": "Where two headings read alike, the source gives them in different places.",
  "data": [
    {"molecule": "Nc1ncc2[nH]cnc2n1", "note": "[2-AP, 2-Aminopurine]", "values": [
      {"measurement": "mRNA", "setting": "[1]; pTNF-α(3′UTR-αEP), 2-AP added at 20 h", "result": "decline"},
      {"measurement": "Rise in precursor transcripts", "setting": "[1]; pTNF-α(3′UTR-αEP), 2-AP added at 20 h, at 53 h", "result": "up to 36 fold"},
      {"measurement": "Expression of spliced mRNA (341-nt band)", "setting": "[1]; [4]", "result": "failed to decline"},
      {"measurement": "Precursor transcripts (700 nt)", "setting": "[1]; [4]", "result": "nor did precursor transcripts (700 nt) increase"},
      {"measurement": "Accumulation of precursor transcripts", "setting": "[1]; pTNF-α(Δ3′UTR), 2-AP 10 mM", "result": "nor was there any enhanced accumulation"},
      {"measurement": "Expression of mRNA", "setting": "[1]; pTNF-α(Δ3′UTR), 2-AP 10 mM", "result": "no longer inhibited"},
      {"measurement": "Expression of TNF-α RNA transcripts", "setting": "[1]; pTNF-α, 2-AP 2 mM from time of transfection", "result": "reduction"},
      {"measurement": "Expression of TNF-α RNA transcripts", "setting": "[1]; pTNF-α, 2-AP 6 mM from time of transfection", "result": "full inhibition"},
      {"measurement": "Expression of spliced TNF-α mRNA (341-nt band)", "setting": "[1]; [5]", "result": "strongly inhibited"},
      {"measurement": "TNF-α precursor transcripts (700-nt band)", "setting": "[1]; [5]", "result": "enhanced accumulation"},
      {"measurement": "Sensitivity of splicing of TNF-β precursor transcripts carrying an inverted TNF-α3′-UTR sequence, compared with TNF-β(3′UTR-α) transcripts", "setting": "[2]", "result": "as sensitive"},
      {"measurement": "Generation of spliced RNA", "setting": "[2]; [6]", "result": "inhibited"},
      {"measurement": "Precursor transcripts", "setting": "[2]; [6]", "result": "increased"},
      {"measurement": "Precursor transcripts", "setting": "[2]; [7]", "result": "strong increase"},
      {"measurement": "Spliced RNA", "setting": "[2]; [7]", "result": "concomitant decline"},
      {"measurement": "Spliced mRNA versus precursor transcripts", "setting": "[2]; pTNF-β(3′UTR-αEP), 2-AP added at 20 h", "result": "pronounced shift from spliced mRNA to precursor transcripts"},
      {"measurement": "Expression of spliced TNF-β RNA", "setting": "[2]; pTNF-β(Δ3′UTR)", "result": "insensitive"},
      {"measurement": "Spliced RNA (214-nt band) and precursor transcripts", "setting": "[2]; pTNF-β, exon 1-3/intron 3 probe, 2-AP from 12 h", "result": "decrease"},
      {"measurement": "TNF-β precursor transcripts (637 nt) and mRNA (571 nt)", "setting": "[2]; pTNF-β, intron 3/exon 4 probe, 2-AP from 12 h", "result": "precursors and mRNA both declined"},
      {"measurement": "Expression of CAT mRNA carrying TNF-α3′-UTR portion", "setting": "CAT mRNA; p5′CAT(3′UTR-α)", "result": "unaffected"},
      {"measurement": "Expression of CAT mRNA", "setting": "CAT mRNA; p5′CAT, 10 mM 2-AP", "result": "proceeded unabated"},
      {"measurement": "Expression of a cotransfected CAT gene", "setting": "CAT mRNA; pSV2CAT cotransfected with pTNF-α, 2-AP 10 mM", "result": "not affected"},
      {"measurement": "Sensitivity of PKR activation by 3′UTR-αEP RNA to 2-AP, compared with activation by dsRNA", "setting": "PKR; 1 mM 2-AP", "result": "less sensitive"},
      {"measurement": "Phosphorylation of PKR and eIF2α driven by purified 3′UTR-αEP RNA", "setting": "PKR; 1 and 5 mM of 2-AP", "result": "inhibited progressively"},
      {"measurement": "Cell viability", "setting": "BHK-21 cells; FIG. 2 experiments, 2-AP up to 10 mM", "result": "remained constant"},
      {"measurement": "Cell viability", "setting": "BHK-21 cells; FIG. 3 experiments, 2-AP and CHX present", "result": "remained constant"},
      {"measurement": "TNF-β precursor transcripts and spliced mRNA", "setting": "[3]; lymphoid cells, increasing doses", "result": "coordinate decline"},
      {"measurement": "Expression of TNF-α mRNA", "setting": "[3]; primary human lymphoid cells", "result": "blocks expression"}
    ]},
    {"molecule": "C[C@@H]1C[C@@H]([C@H](O)CC2CC(=O)NC(=O)C2)C(=O)[C@@H](C)C1", "note": "[CHX]", "values": [
      {"measurement": "Expression of both precursor transcripts and spliced RNA", "setting": "[2]; pTNF-β(3′UTR-α), CHX from 16 h", "result": "enhanced expression"}
    ]},
    {"molecule": "3′UTR-αEP RNA: T7 RNA transcript of the 104-bp EcoRI-PstI fragment of the human TNF-α3′-UTR (2-APRE, SEQ ID NO:1) (nucleic acid, listed as Homo sapiens, RNA, all phosphodiester, T or U not given here) GAATTCAAACTGGGGCCTCCAGAACTCACTGGGGCCTACAGCTTTGATCCCTGACATCTGGAATCTGGAGACCAGGGAGCCTTTGGTTCTGGCCAGAATGCTGC", "values": [
      {"measurement": "Induced phosphorylation of PKR and eIF2α, dependence on RNA concentration", "setting": "PKR", "result": "at low but not high RNA concentrations"},
      {"measurement": "Activation of PKR, judged by phosphorylation of PKR (68 kDa) and eIF2α (38 kDa) bands", "setting": "PKR; RNA 0.05 ng/ml, compared with dsRNA", "result": "activated PKR even more strongly than dsRNA"},
      {"measurement": "Molar specific activity as inducer of PKR phosphorylation", "setting": "PKR; each TNF RNA at 0.05 ng/ml", "result": "highest molar specific activity"}
    ]}
  ]
}
